Experimental data published in paper PMC8806947, “β-galactosidase GALA from Bacillus circulans with high transgalactosylation activity” (Bioengineered, 2021).

Tests used:
[1] = target: T1, GALA (β-galactosidase from Bacillus circulans) (Niallia circulans, UniProt E5RWQ2); assay: o-nitrophenol release, absorbance at […] nm; type: biochemical; settings: 0.25% oNPG, 20 mM phosphate-citrate pH 6.0, 45 °C, 15 min
T1 construct: gene bga; codon-optimised synthetic gene (galAm) with His-tag, secreted from Pichia pastoris GS115 (pPICZαA); HisTrap and gel filtration; predicted 1703 residues, 190 kDa; glycosylated

[2] = target: T1, GALA (β-galactosidase from Bacillus circulans); assay: HPLC and TLC of hydrolysis and transgalactosylation products; type: biochemical; settings: 200-500 g/L lactose, 0.1 M phosphate-citrate pH 5-7, 30-50 °C; also galactosyl acceptor

T1 sequence (E5RWQ2 24-1737): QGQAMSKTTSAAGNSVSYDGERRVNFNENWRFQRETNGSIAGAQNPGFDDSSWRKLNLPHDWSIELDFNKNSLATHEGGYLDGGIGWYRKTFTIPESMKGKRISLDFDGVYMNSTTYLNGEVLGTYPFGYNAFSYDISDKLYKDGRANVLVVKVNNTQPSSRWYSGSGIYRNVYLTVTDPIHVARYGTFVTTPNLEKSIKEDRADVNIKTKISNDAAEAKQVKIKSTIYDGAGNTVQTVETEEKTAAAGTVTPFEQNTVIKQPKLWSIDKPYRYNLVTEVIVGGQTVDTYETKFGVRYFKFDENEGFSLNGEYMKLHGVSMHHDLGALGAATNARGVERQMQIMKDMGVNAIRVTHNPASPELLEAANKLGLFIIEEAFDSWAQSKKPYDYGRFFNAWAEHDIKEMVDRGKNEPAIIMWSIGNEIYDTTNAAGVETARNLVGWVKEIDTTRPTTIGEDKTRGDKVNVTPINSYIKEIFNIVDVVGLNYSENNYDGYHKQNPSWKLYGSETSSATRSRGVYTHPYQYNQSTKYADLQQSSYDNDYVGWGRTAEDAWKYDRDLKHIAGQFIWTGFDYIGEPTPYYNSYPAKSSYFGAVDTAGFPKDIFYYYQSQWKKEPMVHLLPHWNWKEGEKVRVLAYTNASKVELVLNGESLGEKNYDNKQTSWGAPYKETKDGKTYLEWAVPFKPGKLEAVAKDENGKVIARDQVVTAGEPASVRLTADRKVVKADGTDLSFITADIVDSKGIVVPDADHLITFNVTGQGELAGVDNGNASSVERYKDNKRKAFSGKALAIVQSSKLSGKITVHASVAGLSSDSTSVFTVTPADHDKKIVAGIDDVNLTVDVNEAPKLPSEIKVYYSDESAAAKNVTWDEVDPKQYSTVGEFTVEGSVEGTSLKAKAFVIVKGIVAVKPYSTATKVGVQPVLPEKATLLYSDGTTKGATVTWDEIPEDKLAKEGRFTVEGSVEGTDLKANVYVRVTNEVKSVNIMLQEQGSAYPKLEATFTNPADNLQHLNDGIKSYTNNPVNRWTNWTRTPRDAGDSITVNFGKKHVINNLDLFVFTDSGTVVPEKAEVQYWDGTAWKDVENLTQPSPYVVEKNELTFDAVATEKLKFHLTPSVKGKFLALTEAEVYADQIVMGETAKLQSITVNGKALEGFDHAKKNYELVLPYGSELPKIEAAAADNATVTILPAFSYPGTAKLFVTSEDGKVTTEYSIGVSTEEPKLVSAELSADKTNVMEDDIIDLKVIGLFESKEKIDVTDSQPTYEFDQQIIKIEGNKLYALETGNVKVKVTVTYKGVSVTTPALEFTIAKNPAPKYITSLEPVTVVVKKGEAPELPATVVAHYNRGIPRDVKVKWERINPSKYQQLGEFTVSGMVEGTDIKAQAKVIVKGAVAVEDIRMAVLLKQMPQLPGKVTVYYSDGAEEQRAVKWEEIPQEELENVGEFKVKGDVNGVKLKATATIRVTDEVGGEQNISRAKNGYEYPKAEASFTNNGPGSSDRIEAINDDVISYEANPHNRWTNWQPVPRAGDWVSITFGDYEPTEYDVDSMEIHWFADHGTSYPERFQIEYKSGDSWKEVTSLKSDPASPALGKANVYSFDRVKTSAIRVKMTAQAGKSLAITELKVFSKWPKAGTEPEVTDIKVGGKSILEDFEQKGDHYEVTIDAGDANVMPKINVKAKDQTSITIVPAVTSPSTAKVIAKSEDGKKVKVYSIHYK

SMILES | o-nitrophenol release, absorbance at 420 nm [1] | HPLC and TLC of hydrolysis and transgalactosylation products [2]
O=[N+]([O-])c1ccccc1O[C@@H]1O[C@H](CO)[C@H](O)[C@H](O)[C@H]1O [O-nitrophenyl-β-D-galactopyranoside] | The experiments were carried out three times using ONPG as the substrate | 
OC[C@H]1O[C@@H](O[C@H]2[C@H](O)[C@@H](O)C(O)O[C@@H]2CO)[C@H](O)[C@@H](O)[C@H]1O (some centres unmarked) [lactose] |  | enzymatic transgalactosylation activity of the β-galactosidase, using lactose as the substrate
